In patent publication US20260035364A1, “BICYCLIC TETRAHYDROTHIAZEPINE DERIVATIVES” (Hoffmann-La Roche Inc., priority 2022, published 2026):

What was measured:
[1] = biological target: DGKzeta (Homo sapiens, UniProt Q13574); experiment: In vitro DGK inhibition assay (ADP-Glo, liposomes), DGKzeta; assay type: biochemical; design: hDGKzeta(1-928)-N-His; His (N); made in house; host or cells: Sf21 insect cells (baculovirus); details: 2 nM DGK ζ, 50 μM ATP, 125 uM DLG in liposomes, 1 hour reaction
How it was run: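 DGKζ (2 nM) phosphorylated DLG presented in DLG/PS/PC liposomes (final DLG 125 μM) with 50 μM ATP for 1 hour. ADP formed was read by ADP-Glo luminescence. Compounds were tested as 11-point 1:3 dose responses in 2% final DMSO.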

[2] = system: primary human T-cells; experiment: T-cell proliferation assay (CellTiter-Glo); assay type: cell-based; details: Homo sapiens, T-cell, 120 h, CD3 condition; for Emax: 5 days, 20 μM reference compound A1 = 100%, read-out: Emax proliferation (% activation); for EC50: proliferation after 5 days, CellTiter-Glo, read-out: Tcell Proliferation CD3 EC50
How it was run: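 Expanded primary human T-cells (100k/well) on plates coated with CD3 antibody or PBS only, given a 5- or 6-point dose response (top 20 or 10 μM final, 3.333-fold steps, 0.2% DMSO). ATP measured by CellTiter-Glo 2.0 luminescence after 5 days. Normalized to DMSO and 20 μM reference A1 (100%); EC50 and Emax reported for CD3 conditions.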

Chain of DGKzeta (Q13574 whole entry): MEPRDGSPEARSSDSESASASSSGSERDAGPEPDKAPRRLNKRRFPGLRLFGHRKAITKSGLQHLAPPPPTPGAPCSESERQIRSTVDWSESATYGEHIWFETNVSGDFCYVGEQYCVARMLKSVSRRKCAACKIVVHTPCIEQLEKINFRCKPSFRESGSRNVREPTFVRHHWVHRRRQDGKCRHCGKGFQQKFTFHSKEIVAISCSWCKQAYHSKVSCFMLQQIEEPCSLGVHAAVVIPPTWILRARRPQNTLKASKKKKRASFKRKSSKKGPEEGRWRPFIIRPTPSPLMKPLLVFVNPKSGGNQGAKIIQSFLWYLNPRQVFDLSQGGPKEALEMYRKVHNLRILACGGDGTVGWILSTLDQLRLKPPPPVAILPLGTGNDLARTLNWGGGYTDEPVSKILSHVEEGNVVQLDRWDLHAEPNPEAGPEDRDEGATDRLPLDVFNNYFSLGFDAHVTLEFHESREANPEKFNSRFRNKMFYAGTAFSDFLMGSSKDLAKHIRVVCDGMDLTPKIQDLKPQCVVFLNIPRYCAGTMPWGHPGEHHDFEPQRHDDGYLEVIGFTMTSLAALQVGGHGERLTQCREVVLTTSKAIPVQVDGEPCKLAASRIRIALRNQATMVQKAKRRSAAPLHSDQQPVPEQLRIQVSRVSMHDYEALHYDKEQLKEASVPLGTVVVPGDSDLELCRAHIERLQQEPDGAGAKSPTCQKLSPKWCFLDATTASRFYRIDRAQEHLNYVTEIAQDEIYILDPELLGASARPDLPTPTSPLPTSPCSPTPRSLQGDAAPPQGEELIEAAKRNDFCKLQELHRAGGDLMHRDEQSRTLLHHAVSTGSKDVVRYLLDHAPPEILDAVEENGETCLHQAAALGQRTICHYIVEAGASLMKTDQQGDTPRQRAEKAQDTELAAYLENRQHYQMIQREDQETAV

IC50 [1] | SMILES | Emax [2] | EC50 [2]
503 nM | CC(C)(c1nnc(-c2cc3c(cc2F)S(=O)(=O)C[C@H](N)C(=O)N3Cc2ccc(OCC(F)(F)F)cc2)o1)S(C)(=O)=O [Example 24, (3R)-3-amino-8-fluoro-7-[5-(1-methyl-1-methylsulfonyl-ethyl)-1,3,4-oxadiazol-2-yl]-1,1-dioxo-5-[[4-(2,2,2-trifluoroethoxy)phenyl]methyl]-2,3-dihydro-1λ6,5-benzothiazepin-4-one] | 104% | 475 nM
6640 nM | CS(=O)(=O)Cn1nnnc1-c1cc2c(cc1F)S(=O)(=O)C[C@H](N)C(=O)N2Cc1ccc(Oc2ccccc2)cc1 [Example 55, (3R)-3-amino-8-fluoro-7-[1-(methylsulfonyl-methyl)tetrazol-5-yl]-1,1-dioxo-5-[(4-phenoxyphenyl)methyl]-2,3-dihydro-1λ6,5-benzothiazepin-4-one] | 310% | 1150 nM
1750 nM | CC(C)(c1nnc(-c2ccc3c(c2)N(Cc2ccc(-c4ccc(C(F)(F)F)cn4)cc2)C(=O)[C@@H](N)CS3(=O)=O)o1)S(C)(=O)=O [Example 10] | 145% | 1160 nM
317 nM | CC(C)(c1nc(-c2cc3c(cc2F)S(=O)(=O)C[C@H](N)C(=O)N3Cc2ccc(OC(F)(F)F)cc2)no1)S(C)(=O)=O [Example 44, (3R)-3-amino-8-fluoro-7-[5-(1-methyl-1-methylsulfonyl-ethyl)-1,2,4-oxadiazol-3-yl]-1,1-dioxo-5-[[4-(trifluoromethoxy)phenyl]methyl]-2,3-dihydro-1λ6,5-benzothiazepin-4-one] | 251% | 208 nM
893 nM | CC(C)(c1nnc(-c2ccc3c(c2)N(Cc2ccc(Oc4cccc(Cl)c4Cl)cc2)C(=O)[C@@H](N)CS3(=O)=O)o1)S(C)(=O)=O [Example 32, (3R)-3-amino-5-[[4-(2,3-dichlorophenoxy)phenyl]methyl]-7-[5-(1-methyl-1-methylsulfonyl-ethyl)-1,3,4-oxadiazol-2-yl]-1,1-dioxo-2,3-dihydro-1λ6,5-benzothiazepin-4-one] | 75% | 356 nM
413 nM | COc1cccc(Oc2ccc(CN3C(=O)[C@@H](N)CS(=O)(=O)c4ccc(-c5nnc(C(C)(C)S(C)(=O)=O)o5)cc43)cc2)c1 [Example 42] | 205% | 674 nM
586 nM | CC1(c2nnc(-c3ccc4c(c3)N(Cc3ccc(Oc5ccccc5)cc3)C(=O)[C@@H](N)CS4(=O)=O)o2)CCCS1(=O)=O (stereo partly drawn) [Example 58, (3R)-3-amino-7-[5-(2-methyl-1,1-dioxo-thiolan-2-yl)-1,3,4-oxadiazol-2-yl]-1,1-dioxo-5-[(4-phenoxyphenyl)methyl]-2,3-dihydro-1λ6,5-benzothiazepin-4-one] | 112% | 1100 nM
657 nM | CC(C)(c1nnc(-c2cc3c(cc2F)S(=O)(=O)C[C@H](N)C(=O)N3Cc2ccc(Oc3ccccc3)cc2)o1)S(C)(=O)=O [Example 27, (3R)-3-amino-8-fluoro-7-[5-(1-methyl-1-methylsulfonyl-ethyl)-1,3,4-oxadiazol-2-yl]-1,1-dioxo-5-[(4-phenoxyphenyl)methyl]-2,3-dihydro-1λ6,5-benzothiazepin-4-one] | 136% | 863 nM
978 nM | CC(C)(c1nnc(-c2ccc3c(c2)N(Cc2ccc(OC(F)(F)C(F)F)cc2)C(=O)[C@@H](N)CS3(=O)=O)o1)S(C)(=O)=O [Example 3, (3R)-3-amino-7-[5-(1-methyl-1-methylsulfonyl-ethyl)-1,3,4-oxadiazol-2-yl]-1,1-dioxo-5-[[4-(1,1,2,2-tetrafluoroethoxy)phenyl]methyl]-2,3-dihydro-126,5-benzothiazepin-4-one] | 66% | 5070 nM
1080 nM | COc1ccc(-c2ccc(CN3C(=O)[C@@H](N)CS(=O)(=O)c4ccc(-c5nnc(C(C)(C)S(C)(=O)=O)o5)cc43)cc2)cc1 [Example 21, (3R)-3-amino-5-[[4-(4-methoxyphenyl)phenyl]methyl]-7-[5-(1-methyl-1-methylsulfonyl-ethyl)-1,3,4-oxadiazol-2-yl]-1,1-dioxo-2,3-dihydro-1λ6,5-benzothiazepin-4-one] | 115% | 1130 nM
414 nM | CC(C)(c1nnc(-c2ccc3c(c2)N(Cc2ccc(Oc4ccc(F)c(Cl)c4)cc2)C(=O)[C@@H](N)CS3(=O)=O)o1)S(C)(=O)=O [Example 37, (3R)-3-amino-5-[[4-(3-chloro-4-fluoro-phenoxy)phenyl]methyl]-7-[5-(1-methyl-1-methylsulfonyl-ethyl)-1,3,4-oxadiazol-2-yl]-1,1-dioxo-2,3-dihydro-1λ6,5-benzothiazepin-4-one] | 115% | 1290 nM
2330 nM | COc1ccc(-c2ccc(CN3C(=O)[C@@H](N)CS(=O)(=O)c4ccc(-c5noc(C(C)(C)S(C)(=O)=O)n5)cc43)cc2)cc1 [Example 63, (3R)-3-amino-5-[[4-(4-methoxyphenyl)phenyl]methyl]-7-[5-(1-methyl-1-methylsulfonyl-ethyl)-1,2,4-oxadiazol-3-yl]-1,1-dioxo-2,3-dihydro-1λ6,5-benzothiazepin-4-one] | 98% | 92 nM
989 nM | CS(=O)(=O)C1(c2nnc(-c3cc4c(cc3F)S(=O)(=O)C[C@H](N)C(=O)N4Cc3ccc(Cl)cc3)o2)CC1 [Example 1, (3R)-3-amino-5-[(4-chlorophenyl)methyl]-8-fluoro-7-[5-(1-methylsulfonylcyclopropyl)-1,3,4-oxadiazol-2-yl]-1,1-dioxo-2,3-dihydro-1λ6,5-benzothiazepin-4-one] | 99% | 2290 nM
370 nM | CC(C)(c1nnc(-c2cc3c(cc2F)S(=O)(=O)C[C@H](N)C(=O)N3Cc2ccc(OC(F)(F)C(F)F)cc2)o1)S(C)(=O)=O [Example 26, (3R)-3-amino-8-fluoro-7-[5-(1-methyl-1-methylsulfonyl-ethyl)-1,3,4-oxadiazol-2-yl]-1,1-dioxo-5-[[4-(1,1,2,2-tetrafluoroethoxy)phenyl]methyl]-2,3-dihydro-1λ6,5-benzothiazepin-4-one] | 122% | 573 nM
1320 nM | CC(C)(c1nnc(-c2ccc3c(c2)N(Cc2ccc(-c4ccc(F)cn4)cc2)C(=O)[C@@H](N)CS3(=O)=O)o1)S(C)(=O)=O [Example 9, (3R)-3-amino-5-[[4-(5-fluoro-2-pyridyl)phenyl]methyl]-7-[5-(1-methyl-1-methylsulfonyl-ethyl)-1,3,4-oxadiazol-2-yl]-1,1-dioxo-2,3-dihydro-1λ6,5-benzothiazepin-4-one] | 82% | 2700 nM
1380 nM | CC(C)(c1nnc(-c2cc3c(cc2F)S(=O)(=O)C[C@H](N)C(=O)N3Cc2ccc(Cl)cc2)o1)S(C)(=O)=O [Example 2, (3R)-3-amino-5-[(4-chlorophenyl)methyl]-8-fluoro-7-[5-(1-methyl-1-methylsulfonyl-ethyl)-1,3,4-oxadiazol-2-yl]-1,1-dioxo-2,3-dihydro-1λ6,5-benzothiazepin-4-one] | 123% | 399 nM
539 nM | CC(C)(c1nnc(-c2ccc3c(c2)N(Cc2ccc(Oc4cccc(F)c4)cc2)C(=O)[C@@H](N)CS3(=O)=O)o1)S(C)(=O)=O [Example 33, (3R)-3-amino-5-[[4-(3-fluorophenoxy)phenyl]methyl]-7-[5-(1-methyl-1-methylsulfonyl-ethyl)-1,3,4-oxadiazol-2-yl]-1,1-dioxo-2,3-dihydro-1λ6,5-benzothiazepin-4-one] | 82% | 645 nM
377 nM | COc1ccc(-c2ccc(CN3C(=O)[C@@H](N)CS(=O)(=O)c4cc(F)c(-c5noc(C(C)(C)S(C)(=O)=O)n5)cc43)cc2)cc1 [Example 50, (3R)-3-amino-8-fluoro-5-[[4-(4-methoxyphenyl)phenyl]methyl]-7-[5-(1-methyl-1-methylsulfonyl-ethyl)-1,2,4-oxadiazol-3-yl]-1,1-dioxo-2,3-dihydro-1λ6,5-benzothiazepin-4-one] | 293% | 757 nM
1640 nM | COc1cccc(-c2ccc(CN3C(=O)[C@@H](N)CS(=O)(=O)c4ccc(-c5nnc(C(C)(C)S(C)(=O)=O)o5)cc43)cc2)c1 [Example 22, (3R)-3-amino-5-[[4-(3-methoxyphenyl)phenyl]methyl]-7-[5-(1-methyl-1-methylsulfonyl-ethyl)-1,3,4-oxadiazol-2-yl]-1,1-dioxo-2,3-dihydro-1λ6,5-benzothiazepin-4-one] | 47% | > 10000 nM
1460 nM | COc1ccc(-c2ccc(CN3C(=O)[C@@H](N)CS(=O)(=O)c4ccc(-c5nnc(C(C)(C)S(C)(=O)=O)o5)cc43)cc2)c(C)c1 [Example 49, (3R)-3-amino-5-[[4-(4-methoxy-2-methyl-phenyl)phenyl]methyl]-7-[5-(1-methyl-1-methylsulfonyl-ethyl)-1,3,4-oxadiazol-2-yl]-1,1-dioxo-2,3-dihydro-1λ6,5-benzothiazepin-4-one] | 111% | 3130 nM
